In patent US20120115893A1, “Substituted Bicyclic Carboxamide and Urea Compounds as Vanilloid Receptor Ligands” (Gruenenthal GmbH, priority 2010, published 2012):

Experiments:
[1] = biological target: T1, vanilloid receptor 1 (VR1/TRPV1 receptor) (Homo sapiens, UniProt Q8NER1); test: FLIPR Ca2+ influx assay, capsaicin stimulus, CHO K1 cells transfected with human VR1 gene; type: cell-based, human being; details: for (f) Ki (human being) [nM] Cap / Ki: functional, NE=no effect; for Ki: read-out: (f) Ki (human being) [nM] Cap; for inhibition at 5 µM: CHO-K1, @ 5 μM, read-out: inhibition (as a percentage), (f) Ki (human being) Cap column
T1 construct: expressed in transfected cells; host or cells: CHO K1 cells (ECACC), stably transfected
T1 sequence (Q8NER1 whole entry): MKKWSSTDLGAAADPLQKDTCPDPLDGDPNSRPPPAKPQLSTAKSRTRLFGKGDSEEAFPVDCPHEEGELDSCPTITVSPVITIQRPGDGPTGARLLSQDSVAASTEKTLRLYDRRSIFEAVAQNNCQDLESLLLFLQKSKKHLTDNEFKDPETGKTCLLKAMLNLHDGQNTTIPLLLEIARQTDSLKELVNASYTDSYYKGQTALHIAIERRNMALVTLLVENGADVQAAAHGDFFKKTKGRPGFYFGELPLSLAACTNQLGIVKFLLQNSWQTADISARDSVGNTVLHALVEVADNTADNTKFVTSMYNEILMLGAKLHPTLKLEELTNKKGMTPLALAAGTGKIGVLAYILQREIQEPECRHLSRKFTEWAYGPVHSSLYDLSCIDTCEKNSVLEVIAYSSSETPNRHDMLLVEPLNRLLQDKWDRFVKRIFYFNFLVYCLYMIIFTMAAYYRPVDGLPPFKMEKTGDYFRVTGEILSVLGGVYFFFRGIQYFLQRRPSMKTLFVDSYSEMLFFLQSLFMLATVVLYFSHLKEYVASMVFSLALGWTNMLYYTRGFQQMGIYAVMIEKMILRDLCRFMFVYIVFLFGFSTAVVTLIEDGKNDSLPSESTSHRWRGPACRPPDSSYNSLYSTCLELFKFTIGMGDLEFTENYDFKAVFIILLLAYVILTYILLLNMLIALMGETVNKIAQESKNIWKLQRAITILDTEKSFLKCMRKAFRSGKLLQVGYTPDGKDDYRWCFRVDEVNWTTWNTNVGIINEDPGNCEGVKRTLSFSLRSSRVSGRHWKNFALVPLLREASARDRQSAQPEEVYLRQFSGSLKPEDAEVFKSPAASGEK
Method: Furthermore, preference may be given to compounds according to the invention of general formula (I) that cause a 50 percent displacement of capsaicin, which is present at a concentration of 100 nM, in a FLIPR assay with CHO K1 cells which were transfected with the human VR1 gene at a concentration of less than 2,000 nM, preferably less than 1,000 nM, particularly preferably less than 300 nM, most particularly preferably less than 100 nM, even more preferably less than 75 nM, additionally preferably less than 50 nM, most preferably less than 10 nM.
In the process, the Ca^2+ influx is quantified in the FLIPR assay with the aid of a Ca^2+-sensitive dye (type Fluo-4, Molecular Probes Europe BV, Leiden, the Netherlands) in a fluorescent imaging plate reader (FLIPR, Molecular Devices, Sunnyvale, USA), as described hereinafter.
(§1) The agonistic or antagonistic effect of the substances to be tested on the vanilloid receptor 1 (VR1) can also be determined using the following assay. In this assay, the influx of Ca^2+ through the channel is quantified with the aid of a Ca^2+-sensitive dye (type Fluo-4, Molecular Probes Europe BV, Leiden, the Netherlands) in a fluorescent imaging plate reader (FLIPR, Molecular Devices, Sunnyvale, USA).
(§2) Chinese hamster ovary cells (CHO K1 cells, European Collection of Cell Cultures (ECACC) United Kingdom) are stably transfected with the VR1 gene. For functional testing, these cells are plated out on poly-D-lysine-coated black 96-well plates having a clear base (BD Biosciences, Heidelberg, Germany) at a density of 25,000 cells/well. The cells are incubated overnight at 37° C. and 5% CO2 in a culture medium (Ham's F12 nutrient mixture, 10% by volume of FCS (foetal calf serum), 18 μg/ml of L-proline). The next day the cells are incubated with Fluo-4 (Fluo-4 2 μM, 0.01% by volume of Pluronic F127, Molecular Probes in HBSS (Hank's buffered saline solution), Gibco Invitrogen GmbH, Karlsruhe, Germany) for 30 minutes at 37° C. Subsequently, the plates are washed three times with HBSS buffer and after further incubation for 15 minutes at RT used for Ca^2+ measurement in a FLIPR assay. The Ca^2+-dependent fluorescence is measured before and after the addition of the substances to be tested (λex wavelength=488 nm, λem=540 nm). Quantification is carried out by measuring the highest fluorescence intensity (FC, fluorescence counts) over time.
The FLIPR protocol consists of 2 substance additions. First the compounds to be tested (10 μM) are pipetted onto the cells and the Ca^2+ influx is compared with the control (capsaicin 10 μM) (% activation based on the Ca^2+ signal after the addition of 10 μM of capsaicin). After 5 minutes' incubation, 100 nM of capsaicin are applied and the Ca^2+ influx is also determined.
Desensitising agonists and antagonists led to suppression of the Ca^2+ influx. The % inhibition is calculated compared to the maximum achievable inhibition with 10 μM of capsaicin.
Starting from the percentage displacement caused by different concentrations of the compounds to be tested of general formula I, IC50 inhibitory concentrations which cause a 50-percent displacement of capsaicin were calculated. K, values for the test substances were obtained by conversion by means of the Cheng-Prusoff equation (Cheng, Prusoff; Biochem. Pharmacol. 22, 3099-3108, 1973).

[2] = biological target: T1, vanilloid receptor 1 (VR1/TRPV1 receptor); test: Functional VR1 assay, heat stimulus 45° C.; type: cell-based, human being; details: human VR1, heat stimulus 45° C.
Source text: as §1
as §2, with “Subsequently, the plates are washed three times with HBSS buffer and after further incubation for 15 minutes at RT used for Ca^2+ measurement in a FLIPR assay.” left out

[3] = biological target: T2, vanilloid receptor 1 (VR1/TRPV1 receptor) (Mus musculus, UniProt Q704Y3); test: FLIPR Ca2+ influx assay, capsaicin stimulus, mouse VR1; type: cell-based; details: functional, read-out: (f) Ki (mouse) [nM] Cap
T2 construct: expressed in transfected cells; host or cells: CHO K1 cells stably transfected (inferred from method II)
T2 sequence (Q704Y3 whole entry): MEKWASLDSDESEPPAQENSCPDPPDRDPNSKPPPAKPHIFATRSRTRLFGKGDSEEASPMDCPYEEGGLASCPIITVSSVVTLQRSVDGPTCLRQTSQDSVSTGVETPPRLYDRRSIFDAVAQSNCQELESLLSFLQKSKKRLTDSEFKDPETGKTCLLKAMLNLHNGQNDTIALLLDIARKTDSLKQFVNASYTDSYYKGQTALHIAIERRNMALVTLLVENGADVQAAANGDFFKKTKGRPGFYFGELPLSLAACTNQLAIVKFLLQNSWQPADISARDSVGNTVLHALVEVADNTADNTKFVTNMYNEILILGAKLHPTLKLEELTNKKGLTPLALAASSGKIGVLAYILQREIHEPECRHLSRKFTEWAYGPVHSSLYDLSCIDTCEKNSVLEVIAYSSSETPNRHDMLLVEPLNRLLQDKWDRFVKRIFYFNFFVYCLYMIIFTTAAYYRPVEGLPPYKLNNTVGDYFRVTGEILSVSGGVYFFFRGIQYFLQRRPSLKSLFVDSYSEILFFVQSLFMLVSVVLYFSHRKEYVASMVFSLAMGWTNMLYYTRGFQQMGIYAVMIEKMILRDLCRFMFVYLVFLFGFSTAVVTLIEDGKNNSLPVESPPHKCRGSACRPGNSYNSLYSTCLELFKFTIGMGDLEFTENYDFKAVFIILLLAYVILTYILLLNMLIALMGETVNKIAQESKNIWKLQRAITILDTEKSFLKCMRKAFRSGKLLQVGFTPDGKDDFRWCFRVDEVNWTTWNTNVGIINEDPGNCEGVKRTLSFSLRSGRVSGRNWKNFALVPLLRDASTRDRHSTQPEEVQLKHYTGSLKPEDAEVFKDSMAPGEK
Source text: as §1
Chinese hamster ovary cells (CHO K1 cells, European Collection of Cell Cultures (ECACC) United Kingdom) are stably transfected with the VR1 gene. For functional testing, these cells are plated out on poly-D-lysine-coated black 96-well plates having a clear base (BD Biosciences, Heidelberg, Germany) at a density of 25,000 cells/well. […] The Ca^2+-dependent fluorescence is measured before and after the addition of the substances to be tested (λex wavelength=488 nm, λem=540 nm). Quantification is carried out by measuring the highest fluorescence intensity (FC, fluorescence counts) over time.
The FLIPR protocol consists of 2 substance additions. […] After 5 minutes' incubation, 100 nM of capsaicin are applied and the Ca^2+ influx is also determined. […]
Starting from the percentage displacement caused by different concentrations of the compounds to be tested of general formula I, IC50 inhibitory concentrations which cause a 50-percent displacement of capsaicin were calculated. […]

Cn1ncc2c1CCCC2NC(=O)NCc1cc(C(F)(F)F)nn1-c1cccc(Cl)c1 (stereo not drawn) [Example 7, 1-((1-(3-chlorophenyl)-3-(trifluoromethyl)-1H-pyrazol-5-yl)methyl)-3-(1-methyl-4,5,6,7-tetrahydro-1H-indazol-4-yl)urea]
(f) Ki (human being) [nM] Cap [1]: Ne

CC(C(=O)NCc1cc(C(F)(F)F)nn1-c1ccc(F)c(Cl)c1)C1CCCc2ccc(O)cc21 (stereo not drawn) [Example 15, N-((1-(3-chloro-4-fluorophenyl)-3-(trifluoromethyl)-1H-pyrazol-5-yl)methyl)-2-(7-hydroxy-1,2,3,4-tetrahydronaphthalen-1-yl)propanamide]
Ki [1]: 29.5 nM

CC(C)(C)c1ccc2c(c1)CC[C@@H]2NC(=O)NCc1cc(C(F)(F)F)nn1-c1cccc(Cl)c1 [Example 3, (S)-1-(5-tert-butyl-2,3-dihydro-1H-inden-1-yl)-3-((1-(3-chlorophenyl)-3-(trifluoromethyl)-1H-pyrazol-5-yl)methyl)urea]
(f) Ki (human being) [nM] Cap [1]: Ne

CC(C(=O)NCc1cc(C(F)(F)F)nn1-c1cccc(Cl)c1)C1CCCc2ccc(O)cc21 (stereo not drawn) [Example 12, N-((1-(3-chlorophenyl)-3-(trifluoromethyl)-1H-pyrazol-5-yl)methyl)-2-(7-hydroxy-1,2,3,4-tetrahydronaphthalen-1-yl)propanamide]
inhibition at 2.5 µM ([2]; @ 2.5 μM, read-out: inhibition (as a percentage), IC50 (human being) 45° C. column): 30%
Ki [1]: 49.2 nM

CC(C)(C)c1ccc2c(c1)CC[C@H]2NC(=O)NCc1cc(C(F)(F)F)nn1-c1cccc(Cl)c1 [Example 2, (R)-1-(5-tert-butyl-2,3-dihydro-1H-inden-1-yl)-3-((1-(3-chlorophenyl)-3-(trifluoromethyl)-1H-pyrazol-5-yl)methyl)urea]
inhibition at 5 µM [1]: 33%

O=C(NCc1cc(C(F)(F)F)nn1-c1cccc(Cl)c1)NC1CCCc2cnccc21 (stereo not drawn) [Example 19, 1-((1-(3-chlorophenyl)-3-(trifluoromethyl)-1H-pyrazol-5-yl)methyl)-3-(5,6,7,8-tetrahydroisoquinolin-5-yl)urea]
inhibition at 5 µM [1]: 38%

CC(C)(C)c1cc(CNC(=O)NC2CCCc3cnccc32)n(-c2cccc(Cl)c2)n1 (stereo not drawn) [Example 20, 1-((3-tert-butyl-1-(3-chlorophenyl)-1H-pyrazol-5-yl)methyl)-3-(5,6,7,8-tetrahydroisoquinolin-5-yl)urea]
Ki [1]: 73.6 nM

CC(C)(C)c1ccc2c(c1)C[C@H](NC(=O)NCc1cc(C(C)(C)C)nn1-c1cccc(Cl)c1)C2 [Example 4, (R)-1-((3-tert-butyl-1-(3-chlorophenyl)-1H-pyrazol-5-yl)methyl)-3-(5-tert-butyl-2,3-dihydro-1H-inden-2-yl)ure]
(f) Ki (human being) [nM] Cap [1]: Ne

CC(C)(C)c1cc(CNC(=O)NC2CCCc3ccc(O)cc32)n(-c2cccc(Cl)c2)n1 (stereo not drawn) [Example 14, 1-((3-tert-butyl-1-(3-chlorophenyl)-1H-pyrazol-5-yl)methyl)-3-(7-hydroxy-1,2,3,4-tetrahydronaphthalen-1-yl)urea]
Ki [3]: 132 nM
Ki [1]: 7.7 nM

O=C(NCc1cc(C(F)(F)F)nn1-c1cccc(Cl)c1)NC1CCCc2ccc(O)cc21 (stereo not drawn) [Example 13, 1-((1-(3-chlorophenyl)-3-(trifluoromethyl)-1H-pyrazol-5-yl)methyl)-3-(7-hydroxy-1,2,3,4-tetrahydronaphthalen-1-yl)urea]
IC50 ([2]; read-out: IC50 (human being) [nM], 45° C.): 1860 nM
Ki [1]: 16.1 nM

N-((1-(3-chlorophenyl)-3-(trifluoromethyl)-1H-pyrazol-5-yl)methyl)-2-(7-hydroxy-1,2,3,4-tetrahydronaphthalen-1-yl)propanamide [Example 10]
inhibition (as a percentage), (f) Ki (human being) Cap column ([1]; @ 1 μM): 14% @ 1 μM
inhibition (as a percentage), (f) Ki (human being) Cap column ([1]; @ 5 μM): 34% @ 5 μM
